Entries after “also recorded” stand apart in the source; their conditions may differ.
Test system: male Wistar rats
Experiment: In vivo blood glucose elevation after s.c. injection
Set-up: species or system rat
Procedure: Rats were catheterized to enable collection of blood samples at various time points. The total blood glucose level was measured by withdrawing blood at regular intervals (5-120 min) and tested using [sequence] LITE (glucose test meters, Abbott, Chicago, Ill.).

| Substance | Maximum elevation in blood glucose (2.8 nmol/kg s.c.) [mg/dL] | Blood glucose elevation compared with native glucagon (7.1 nmol/kg s.c.) | Maximum increase in blood glucose (7.1 nmol/kg s.c.) [mg/dL] | Time of peak blood glucose (7.1 nmol/kg s.c.) [min] |
| --- | --- | --- | --- | --- |
| phospho-Ser16-glucagon | ~10 | activity comparable to that of native glucagon | ~50 | 20 |
| phospho-Thr7-glucagon | – | slower response and a somewhat lower blood glucose peak; also recorded: somewhat slower increase | – | – |
| phospho-Tyr13-glucagon | – | response similar to that of phospho-Thr5-glucagon and phospho-Ser16-glucagon; also recorded: comparable to native glucagon | – | – |

Source: patent US11472857B2 (Purdue Research Foundation, priority 2015, dated 2022)
